{"source": "the NIST ThermoML archive (doi:10.1021/je8004062)", "assay": "mn = molality of the nth substance listed, in mol/kg", "conditions": "101 kPa, Liquid", "note": "Numbers after ± are expanded uncertainties."}
{"smiles": "[Cl-].[Na+]", "note": "[sodium chloride] + O", "values": [{"measurement": "mass density", "setting": "293.15 K, m1 = 0.2076", "value": "1006.3 ± 0.1", "unit": "kg/m3"}, {"measurement": "viscosity", "setting": "293.15 K, m1 = 0.2076", "value": "1.012 ± 0.013", "unit": "mPa·s"}, {"measurement": "viscosity", "setting": "293.15 K, m1 = 0.3959", "value": "1.031 ± 0.013", "unit": "mPa·s"}, {"measurement": "mass density", "setting": "293.15 K, m1 = 0.5997", "value": "1022 ± 0.1", "unit": "kg/m3"}, {"measurement": "viscosity", "setting": "293.15 K, m1 = 0.5997", "value": "1.054 ± 0.013", "unit": "mPa·s"}, {"measurement": "mass density", "setting": "293.15 K, m1 = 0.7817", "value": "1029 ± 0.1", "unit": "kg/m3"}, {"measurement": "viscosity", "setting": "293.15 K, m1 = 0.7817", "value": "1.073 ± 0.013", "unit": "mPa·s"}, {"measurement": "mass density", "setting": "293.15 K, m1 = 1.01", "value": "1037.6 ± 0.1", "unit": "kg/m3"}, {"measurement": "viscosity", "setting": "293.15 K, m1 = 1.01", "value": "1.098 ± 0.013", "unit": "mPa·s"}, {"measurement": "mass density", "setting": "293.15 K, m1 = 1.199", "value": "1044.5 ± 0.1", "unit": "kg/m3"}, {"measurement": "viscosity", "setting": "293.15 K, m1 = 1.199", "value": "1.117 ± 0.014", "unit": "mPa·s"}, {"measurement": "mass density", "setting": "293.15 K, m1 = 1.502", "value": "1055.4 ± 0.2", "unit": "kg/m3"}, {"measurement": "viscosity", "setting": "293.15 K, m1 = 1.502", "value": "1.151 ± 0.014", "unit": "mPa·s"}, {"measurement": "mass density", "setting": "293.15 K, m1 = 1.794", "value": "1065.7 ± 0.2", "unit": "kg/m3"}, {"measurement": "viscosity", "setting": "293.15 K, m1 = 1.794", "value": "1.184 ± 0.014", "unit": "mPa·s"}, {"measurement": "mass density", "setting": "293.15 K, m1 = 2.004", "value": "1073.1 ± 0.2", "unit": "kg/m3"}, {"measurement": "viscosity", "setting": "293.15 K, m1 = 2.004", "value": "1.208 ± 0.015", "unit": "mPa·s"}, {"measurement": "mass density", "setting": "293.15 K, m1 = 2.409", "value": "1086.9 ± 0.2", "unit": "kg/m3"}, {"measurement": "viscosity", "setting": "293.15 K, m1 = 2.409", "value": "1.256 ± 0.015", "unit": "mPa·s"}, {"measurement": "mass density", "setting": "293.15 K, m1 = 3", "value": "1106.5 ± 0.2", "unit": "kg/m3"}, {"measurement": "viscosity", "setting": "293.15 K, m1 = 3", "value": "1.332 ± 0.016", "unit": "mPa·s"}, {"measurement": "mass density", "setting": "293.15 K, m1 = 3.595", "value": "1125.5 ± 0.2", "unit": "kg/m3"}, {"measurement": "viscosity", "setting": "293.15 K, m1 = 3.595", "value": "1.412 ± 0.017", "unit": "mPa·s"}, {"measurement": "mass density", "setting": "293.15 K, m1 = 4.186", "value": "1143.5 ± 0.2", "unit": "kg/m3"}, {"measurement": "viscosity", "setting": "293.15 K, m1 = 4.186", "value": "1.496 ± 0.018", "unit": "mPa·s"}, {"measurement": "mass density", "setting": "293.15 K, m1 = 4.812", "value": "1162.1 ± 0.2", "unit": "kg/m3"}, {"measurement": "viscosity", "setting": "293.15 K, m1 = 4.812", "value": "1.592 ± 0.019", "unit": "mPa·s"}, {"measurement": "mass density", "setting": "298.15 K, m1 = 0.2076", "value": "1005.7 ± 0.1", "unit": "kg/m3"}, {"measurement": "viscosity", "setting": "298.15 K, m1 = 0.2076", "value": "0.9082 ± 0.011", "unit": "mPa·s"}, {"measurement": "mass density", "setting": "298.15 K, m1 = 0.3959", "value": "1013.2 ± 0.1", "unit": "kg/m3"}, {"measurement": "viscosity", "setting": "298.15 K, m1 = 0.3959", "value": "0.9237 ± 0.011", "unit": "mPa·s"}, {"measurement": "mass density", "setting": "298.15 K, m1 = 0.5997", "value": "1021.2 ± 0.1", "unit": "kg/m3"}, {"measurement": "viscosity", "setting": "298.15 K, m1 = 0.5997", "value": "0.9408 ± 0.012", "unit": "mPa·s"}, {"measurement": "mass density", "setting": "298.15 K, m1 = 0.7817", "value": "1028.1 ± 0.1", "unit": "kg/m3"}, {"measurement": "viscosity", "setting": "298.15 K, m1 = 0.7817", "value": "0.9565 ± 0.012", "unit": "mPa·s"}, {"measurement": "viscosity", "setting": "298.15 K, m1 = 1.01", "value": "0.9769 ± 0.012", "unit": "mPa·s"}, {"measurement": "mass density", "setting": "298.15 K, m1 = 1.199", "value": "1043.4 ± 0.1", "unit": "kg/m3"}, {"measurement": "viscosity", "setting": "298.15 K, m1 = 1.199", "value": "0.9944 ± 0.012", "unit": "mPa·s"}, {"measurement": "mass density", "setting": "298.15 K, m1 = 1.502", "value": "1054.3 ± 0.2", "unit": "kg/m3"}, {"measurement": "viscosity", "setting": "298.15 K, m1 = 1.502", "value": "1.024 ± 0.013", "unit": "mPa·s"}, {"measurement": "mass density", "setting": "298.15 K, m1 = 1.794", "value": "1064.5 ± 0.2", "unit": "kg/m3"}, {"measurement": "viscosity", "setting": "298.15 K, m1 = 1.794", "value": "1.054 ± 0.013", "unit": "mPa·s"}, {"measurement": "mass density", "setting": "298.15 K, m1 = 2.004", "value": "1071.8 ± 0.2", "unit": "kg/m3"}, {"measurement": "viscosity", "setting": "298.15 K, m1 = 2.004", "value": "1.077 ± 0.013", "unit": "mPa·s"}, {"measurement": "mass density", "setting": "298.15 K, m1 = 2.409", "value": "1085.5 ± 0.2", "unit": "kg/m3"}, {"measurement": "viscosity", "setting": "298.15 K, m1 = 2.409", "value": "1.124 ± 0.014", "unit": "mPa·s"}, {"measurement": "mass density", "setting": "298.15 K, m1 = 3", "value": "1105 ± 0.2", "unit": "kg/m3"}, {"measurement": "viscosity", "setting": "298.15 K, m1 = 3", "value": "1.2 ± 0.015", "unit": "mPa·s"}, {"measurement": "mass density", "setting": "298.15 K, m1 = 3.595", "value": "1123.8 ± 0.2", "unit": "kg/m3"}, {"measurement": "viscosity", "setting": "298.15 K, m1 = 3.595", "value": "1.288 ± 0.015", "unit": "mPa·s"}, {"measurement": "mass density", "setting": "298.15 K, m1 = 4.186", "value": "1141.7 ± 0.2", "unit": "kg/m3"}, {"measurement": "viscosity", "setting": "298.15 K, m1 = 4.186", "value": "1.385 ± 0.017", "unit": "mPa·s"}, {"measurement": "mass density", "setting": "298.15 K, m1 = 4.812", "value": "1160 ± 0.2", "unit": "kg/m3"}, {"measurement": "viscosity", "setting": "298.15 K, m1 = 4.812", "value": "1.502 ± 0.018", "unit": "mPa·s"}, {"measurement": "mass density", "setting": "303.15 K, m1 = 0.2076", "value": "1004 ± 0.1", "unit": "kg/m3"}, {"measurement": "viscosity", "setting": "303.15 K, m1 = 0.2076", "value": "0.8115 ± 0.01", "unit": "mPa·s"}, {"measurement": "mass density", "setting": "303.15 K, m1 = 0.3959", "value": "1011.7 ± 0.1", "unit": "kg/m3"}, {"measurement": "viscosity", "setting": "303.15 K, m1 = 0.3959", "value": "0.8306 ± 0.01", "unit": "mPa·s"}, {"measurement": "viscosity", "setting": "303.15 K, m1 = 0.5997", "value": "0.8489 ± 0.011", "unit": "mPa·s"}, {"measurement": "mass density", "setting": "303.15 K, m1 = 0.7817", "value": "1026.4 ± 0.1", "unit": "kg/m3"}, {"measurement": "viscosity", "setting": "303.15 K, m1 = 0.7817", "value": "0.8638 ± 0.011", "unit": "mPa·s"}, {"measurement": "mass density", "setting": "303.15 K, m1 = 1.01", "value": "1034.8 ± 0.1", "unit": "kg/m3"}, {"measurement": "viscosity", "setting": "303.15 K, m1 = 1.01", "value": "0.8825 ± 0.011", "unit": "mPa·s"}, {"measurement": "mass density", "setting": "303.15 K, m1 = 1.199", "value": "1041.4 ± 0.1", "unit": "kg/m3"}, {"measurement": "viscosity", "setting": "303.15 K, m1 = 1.199", "value": "0.898 ± 0.011", "unit": "mPa·s"}, {"measurement": "mass density", "setting": "303.15 K, m1 = 1.502", "value": "1052.3 ± 0.1", "unit": "kg/m3"}, {"measurement": "viscosity", "setting": "303.15 K, m1 = 1.502", "value": "0.9236 ± 0.011", "unit": "mPa·s"}, {"measurement": "mass density", "setting": "303.15 K, m1 = 1.794", "value": "1062.5 ± 0.2", "unit": "kg/m3"}, {"measurement": "viscosity", "setting": "303.15 K, m1 = 1.794", "value": "0.9496 ± 0.012", "unit": "mPa·s"}, {"measurement": "mass density", "setting": "303.15 K, m1 = 2.004", "value": "1069.7 ± 0.2", "unit": "kg/m3"}, {"measurement": "viscosity", "setting": "303.15 K, m1 = 2.004", "value": "0.9695 ± 0.012", "unit": "mPa·s"}, {"measurement": "mass density", "setting": "303.15 K, m1 = 2.409", "value": "1083.4 ± 0.2", "unit": "kg/m3"}, {"measurement": "viscosity", "setting": "303.15 K, m1 = 2.409", "value": "1.011 ± 0.013", "unit": "mPa·s"}, {"measurement": "mass density", "setting": "303.15 K, m1 = 3", "value": "1102.7 ± 0.2", "unit": "kg/m3"}, {"measurement": "viscosity", "setting": "303.15 K, m1 = 3", "value": "1.08 ± 0.013", "unit": "mPa·s"}, {"measurement": "mass density", "setting": "303.15 K, m1 = 3.595", "value": "1121.4 ± 0.2", "unit": "kg/m3"}, {"measurement": "viscosity", "setting": "303.15 K, m1 = 3.595", "value": "1.162 ± 0.014", "unit": "mPa·s"}, {"measurement": "mass density", "setting": "303.15 K, m1 = 4.186", "value": "1139.2 ± 0.2", "unit": "kg/m3"}, {"measurement": "viscosity", "setting": "303.15 K, m1 = 4.186", "value": "1.256 ± 0.015", "unit": "mPa·s"}, {"measurement": "mass density", "setting": "303.15 K, m1 = 4.812", "value": "1157.5 ± 0.2", "unit": "kg/m3"}, {"measurement": "viscosity", "setting": "303.15 K, m1 = 4.812", "value": "1.373 ± 0.016", "unit": "mPa·s"}]}
